The text below walks through data of a flash point compilation (Sun et al. 2020).

Test in series [1]: not given
This is another data set of the same source.

Test in series [2]: not given
The source holds these as a separate data set.

Consider `C[Si](C)(Cl)O[Si](C)(C)Cl` [1,3-Dichlorotetramethyldisiloxane], for which the flash point was determined as 15.00 °C.

For the compound `C=C[Si](C)(C)N[Si](C)(C)C=C` [1,3-Divinyltetramethyldisilazane], the flash point was 34.00 °C. The same measure, in the same setting: the figure for `CCCCC=C[Si](Cl)(Cl)Cl` [1-Hexenyltrichlorosilane] is 60.00 °C; for `CC#C[Si](C)(C)C` [1-Trimethylsilylpropyne] it is -3.00 °C; for `CO[Si](CCC1CCC2OC2C1)(OC)OC` (configuration not stated) [2-(3,4-epoxycyclohexyl)ethyltrimethoxysilane] it is 146.00 °C. On to `CCCCCCC(C)O` (configuration not stated) [2-Octanol], for which the flash point in series [1] was 88.00 °C; in series [2], 71.0 °C. Turning to `CCCC(C)O` (configuration not stated) [2-Pentanol], the figures for the flash point in series [1] and in series [2] were 39.00 °C and 34.0 °C, respectively. `CC(CCl)C[Si](C)(Cl)Cl` (configuration not stated) [3-Chloro-2-methylpropylmethyldichlorosilane]: the flash point amounted to 90.00 °C. `CO[Si](C)(CCCCl)OC` [3-Chloropropylmethyldimethoxysilane] returned a flash point of 45.00 °C. `ClCCC[Si](Cl)(Cl)Cl` [3-Chloropropyltrichlorosilane] registered a flash point of 84.00 °C. `CO[Si](CCCOCC1CO1)(OC)OC` (configuration not stated) [3-Glycidoxypropyltrimethoxysilane] registered a flash point of 110.00 °C. The compound `C=C(C)C(=O)OCCC[Si](OC)(OC)OC` [3-Methacryloxypropyltrimethoxysilane] gave a flash point of 92.00 °C. `COCC(C)O[Si](C)(C)C` (configuration not stated) [(1-Methoxy-2-propoxy)trimethylsilane] had a flash point of 20.00 °C.

For the compound `C=CC=CC[Si](C)(C)C` [(2,4-Pentadienyl)trimethylsilane], the flash point worked out at 18.00 °C.

In turn, `C[Si](C)(C)OC1=CCCC1` [(Cyclopentenyloxy)trimethylsilane] had a flash point of 38.00 °C. On the same count and under the same terms, then `CCN(CC)[Si](C)(C)C` [(Diethylamino)trimethylsilane], with 10.00 °C; and `CC(C)N(C(C)C)[Si](C)(C)C` [(Diisopropylamino)trimethylsilane], with 28.00 °C. As to `CN(C)[SiH](C)C` [(N,N-Dimethylamino)dimethylsilane], the flash point was -13.00 °C.

For the compound `CC[Si](CC)(CC)N(C)C` [(N,N-Dimethylamino)triethylsilane], the flash point is 26.00 °C. `CC(=O)OC[Si](C)(C)C` [Acetoxymethyltrimethylsilane]: the flash point is 20.00 °C. Compound `C=CC[Si](C)(C)Cl` [Allyl Dimethylchlorosilane] gave a flash point of 5.00 °C. As to `C=CCOC(C)=O` [Allyl acetate], the flash point in series [1] was found to be 21.00 °C; in series [2], 10 °C.

Compound `C=CC[Si](Cl)(Cl)Cl` [Allyltrichlorosilane] yielded a flash point of 31.00 °C. As for `C=CC[Si](OC)(OC)OC` [Allyltrimethoxysilane], the flash point was 46.00 °C. `C=CC[Si](C)(C)C` [Allyltrimethylsilane]: the flash point was 7.00 °C. Same read-out and setting: the figure for `C[Si](C)(C)C[Si](C)(C)C` [Bis(trimethylsilyl)methane] is 12.00 °C; for `C[Si](C)(C)CBr` [Bromomethyltrimethylsilane] it is 16.00 °C.

Turning to `C[Si](C)(Cl)CCl` [Chloromethyldimethylchlorosilane], the flash point is 22.00 °C. On the same count and under the same terms, the figure for `CCO[Si](C)(C)CCl` [Chloromethyldimethylethoxysilane] is 26.00 °C; for `Cl[Si](Cl)(Cl)C1CCCC1` [Cyclopentyltrichlorosilane] it is 77.00 °C. `C[Si](C)(C)O[Si](C)(C)O[Si](C)(C)O[Si](C)(C)C` [Decamethyltetrasiloxane]: the flash point amounted to 62.00 °C. The same measure, in the same setting: the figure for `CC[Si](Cl)(Cl)CC` [Dichlorodiethylsilane] is 24.00 °C; for `Cl[SiH2]Cl` [Dichlorosilane] it is -37.00 °C; for `CCO[Si](CC)(CC)OCC` [Diethyldiethoxysilane] it is 43.00 °C.

As to `CC[Si](C)(Cl)CC` [Diethylmethylchlorosilane], the flash point was found to be 15.00 °C.

The compound `CC(=O)O[Si](C)(C)OC(C)=O` [Dimethyldiacetoxysilane] came in with a flash point of 37.00 °C. Same read-out and setting: then `c1ccc([SiH2]c2ccccc2)cc1` [Diphenylsilane], with 98.00 °C. `C[Si]1(C)O[Si](C)(C)O[Si](C)(C)O[Si](C)(C)O[Si](C)(C)O[Si](C)(C)O1` [Dodecamethylcyclohexasiloxane] registered a flash point of 93.00 °C. On to `CC[SiH3]` [Ethylsilane], for which the flash point was -60.00 °C. `CC[Si](OC)(OC)OC` [Ethyltrimethoxysilane]: the flash point was 27.00 °C. `CCO[SiH2]CCCN` [Gamma-aminopropylethoxysilane] yielded a flash point of 96.11 °C. In turn, `CCCC(C)CCC` [Heptane, 4-methyl-] returned a flash point in series [2] of 6.0 °C. In turn, `C[Si](C)(C)O[Si](C)(C)O[Si](C)(C)O[Si](C)(C)O[Si](C)(C)O[Si](C)(C)O[Si](C)(C)C` [Hexadecamethylheptasiloxane] showed a flash point of 133.00 °C. As to `CCCCCCCCCCCCCCCC` [Hexadecane], in series [2], the flash point is 134.0 °C. `CC[Si](CC)(CC)O[Si](CC)(CC)CC` [Hexaethyldisiloxane] came in with a flash point of 76.00 °C. Take `C[Si](C)(C)O[Si](C)(C)C` [Hexamethyldisiloxane]: the flash point was -3.00 °C. Compound `C[Si](C)(C)S[Si](C)(C)C` [Hexamethyldisilthiane] gave a flash point of 26.00 °C. Take `CCC(C)CC(C)C` (configuration not stated) [Hexane, 2,4-dimethyl-]: the flash point in series [2] amounted to 3.0 °C.

Compound `CC(C)CCC(C)C` [Hexane, 2,5-dimethyl-] showed a flash point in series [2] of 2.0 °C. In turn, `CCC(C)C(C)CC` (configuration not stated) [Hexane, 3,4-dimethyl-] gave a flash point in series [2] of 7.5 °C. For the compound `CCCCCC[SiH](Cl)Cl` [Hexyldichlorosilane], the flash point came to 64.00 °C.

For the compound `CCCCCC[SiH3]` [Hexylsilane], the flash point was found to be 12.00 °C.

Turning to `C[Si](C)(C)I` [Iodotrimethylsilane], the flash point is 15.00 °C. Compound `C=CC(=O)OCC(C)C` [Isobutyl acrylate] gave a flash point in series [2] of 31.2 °C. The compound `CO[Si](CC(C)C)(OC)OC` [Isobutyltrimethoxysilane] had a flash point of 42.00 °C.

In turn, `CCCCCCCCCCCC(=O)O` [Lauric acid] registered a flash point in series [2] of 164 °C. In the case of `COC(C)=O` [METHYL ACETATE], the flash point in series [2] is -10.0 °C. The compound `Cc1cc(C)cc(C)c1` [Mesitylene] displayed a flash point in series [2] of 44.5 °C. Consider `CO[Si](C)(C)C` [Methoxytrimethylsilane], for which the flash point was -30.00 °C.

For the compound `CC(=O)O[Si](C)(OC(C)=O)OC(C)=O` [Methyltriacetoxysilane], the flash point is 85.00 °C. In the case of `C[Si](Cl)(Cl)Cl` [Methyltrichlorosilane], the flash point is 3.00 °C. As for `C[Si](C)(C)N1CCOCC1` [N-(Trimethylsilyl)morpholine], the flash point was determined as 27.00 °C.

On to `CCCCCCCCCOC(C)=O` [NONYL ACETATE], for which the flash point in series [2] is 99.0 °C. On the same count and under the same terms, the figure for `CCCCCCCCCCCCCCCCCCC` [Nonadecane] is 168 °C; for `CCCCCCCC(C)C` [Nonane, 2-methyl-] it is 41 °C.

Consider `C[Si](C)(C)O[Si](C)(C)O[Si](C)(C)O[Si](C)(C)O[Si](C)(C)O[Si](C)(C)O[Si](C)(C)O[Si](C)(C)C` [Octadecamethyloctasiloxane], for which the flash point stood at 144.00 °C. With `C[Si]1(C)N[Si](C)(C)N[Si](C)(C)N[Si](C)(C)N1` [Octamethylcyclotetrasilazane], the flash point amounted to 66.00 °C. Regarding `C[Si]1(C)O[Si](C)(C)O[Si](C)(C)O[Si](C)(C)O1` [Octamethylcyclotetrasiloxane], the flash point is 57.00 °C. Turning to `CC(C)CCCCC(C)C` [Octane, 2,7-dimethyl-], in series [2], the flash point turned out to be 37.8 °C. `CCCCCCC(C)C` [Octane, 2-methyl-]: in series [2], the flash point stood at 26.0 °C. The compound `CCCCCC(C)CC` (configuration not stated) [Octane, 3-methyl-] registered a flash point in series [2] of 25.5 °C. Consider `O=C(O)CCCCCC(=O)O` [PIMELIC acid], for which, in series [2], the flash point was found to be 215 °C. `CCCCCCl` [Pentane, 1-chloro-] had a flash point in series [2] of 11.0 °C.

In series [2], `CCC(C)(C)C(C)(C)C` [Pentane, 2,2,3,3-tetramethyl-] came in with a flash point of 21.5 °C. In turn, `CCC(CC)(CC)CC` [Pentane, 3,3-diethyl-] returned a flash point in series [2] of 21 °C. In series [2], `Cc1cccc(O)c1` [Phenol, 3-methyl-] registered a flash point of 86.0 °C.

In turn, `O=C(O)CCCCCC(=O)O` [Pimelic acid] had a flash point in series [2] of 150.0 °C. `CC(=O)C(C)(C)C` [Pinacolone]: the flash point in series [2] was 9.0 °C. On to `CCC#N` [Propanenitrile], for which, in series [2], the flash point is 6.0 °C.

In the case of `CCC=O` [Propionaldehyde], the flash point in series [2] is -29.9 °C.

In series [2], `Cc1cccc(C)n1` [Pyridine, 2,6-dimethyl-] returned a flash point of 33 °C.

Turning to `Cc1cccnc1` [Pyridine, 3-methyl-], the flash point in series [2] came to 36.0 °C. For the compound `CCCCCCCCCCC=O` [Undecanal], in series [2], the flash point worked out at 96.0 °C. For the compound `CCCCC(=O)O` [Valeric acid], the flash point in series [1] was 96.00 °C; in series [2] it was 86.0 °C. Turning to `C=COCCCC` [n-Butylvinylether], the flash point in series [2] is -1 °C.

In the case of `CCCCCC` [n-HEXANE], the flash point in series [2] is -21.6 °C.

`c1ccc(-c2ccc(-c3ccccc3)cc2)cc1` [p-Terphenyl] returned a flash point in series [2] of 207 °C. For `CCC(C)O` (configuration not stated) [sec-Butanol], the flash point in series [2] was 23.0 °C.
